According to patent US20200016159A1, “N3-CYCLICALLY SUBSTITUTED THIENOURACILS AND USE THEREOF” (Bayer Aktiengesellschaft, priority 2016, published 2020):

Biological target: T1, human adenosine A2b receptor (Homo sapiens, UniProt P29275)
T1 sequence (P29275 1-332): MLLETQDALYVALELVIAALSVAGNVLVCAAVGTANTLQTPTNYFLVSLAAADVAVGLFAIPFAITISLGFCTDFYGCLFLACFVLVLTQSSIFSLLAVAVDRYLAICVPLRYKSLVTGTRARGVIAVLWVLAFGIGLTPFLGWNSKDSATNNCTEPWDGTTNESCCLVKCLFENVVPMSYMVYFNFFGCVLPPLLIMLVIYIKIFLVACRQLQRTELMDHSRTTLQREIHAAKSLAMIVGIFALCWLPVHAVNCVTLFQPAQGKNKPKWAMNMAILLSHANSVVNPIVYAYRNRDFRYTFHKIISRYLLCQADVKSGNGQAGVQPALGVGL
Experiment: Cellular in vitro reporter gene test for A2b receptor activity (antagonism of NECA)
Type: cell-based
Design: expressed in transfected cells; host or cells: CHO-K1 (Chinese hamster ovary) with CRE-luciferase reporter
Conditions: recombinant CHO-K1 cells, CRE-luciferase reporter, co-incubation with EC50 concentration of NECA, 3 hours
Procedure, shortened: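 CHO-K1 cells expressing recombinant human A2b receptor plus a CRE-driven firefly luciferase reporter. Compounds co-incubated with NECA at its same-day EC50 concentration; luminescence read 3 hours after NECA addition. IC50 values, sometimes means of several determinations rounded to two significant figures.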

Row | Compound | IC50
1 | COCCn1c(=O)n(C2CCCC2)c(=O)c2c(C)c(CN3CCNC(=O)C3=O)sc21 [Example 192, 3-Cyclopentyl-6-[(2,3-dioxopiperazin-1-yl)methyl]-1-(2-methoxyethyl)-5-methylthieno[2,3-d]pyrimidine-2,4(1H,3H)-dione] | 140 nM
2 | COCCn1c(=O)n(C2CCCC2)c(=O)c2c(C)c(Cn3nc[nH]c3=O)sc21 [Example 193, 3-Cyclopentyl-1-(2-methoxyethyl)-5-methyl-6-[(5-oxo-4,5-dihydro-1H-1,2,4-triazol-1-yl)methyl]thieno[2,3-d]pyrimidine-2,4(1H,3H)-dione] | 230 nM
3 | CCn1c(=O)n(C2CC2)c(=O)c2c(C)c(Cn3nc[nH]c3=O)sc21 [Example 194, 3-Cyclopropyl-1-ethyl-5-methyl-6-[(5-oxo-4,5-dihydro-1H-1,2,4-triazol-1-yl)methyl]thieno[2,3-d]pyrimidine-2,4(1H,3H)-dione] | 180 nM
4 | CCCn1c(=O)n(C2CC2)c(=O)c2c(C)c(Cn3nc[nH]c3=O)sc21 [Example 195, 3-Cyclopropyl-5-methyl-6-[(5-oxo-4,5-dihydro-1H-1,2,4-triazol-1-yl)methyl]-1-propylthieno[2,3-d]pyrimidine-2,4(1H,3H)-dione] | 120 nM
5 | Cc1c(Cn2nc[nH]c2=O)sc2c1c(=O)n(C1CC1)c(=O)n2CCF [Example 196, 3-Cyclopropyl-1-(2-fluoroethyl)-5-methyl-6-[(5-oxo-4,5-dihydro-1H-1,2,4-triazol-1-yl)methyl]thieno[2,3-d]pyrimidine-2,4(1H,3H)-dione] | 210 nM
6 | Cc1c(Cn2nc[nH]c2=O)sc2c1c(=O)n(C1CC1)c(=O)n2CCCF [Example 197, 3-Cyclopropyl-1-(3-fluoropropyl)-5-methyl-6-[(5-oxo-4,5-dihydro-1H-1,2,4-triazol-1-yl)methyl]thieno[2,3-d]pyrimidine-2,4(1H,3H)-dione] | 120 nM
7 | Cc1c(Cn2nc[nH]c2=O)sc2c1c(=O)n(C1CC1)c(=O)n2CCCCF [Example 198, 3-Cyclopropyl-1-(4-fluorobutyl)-5-methyl-6-[(5-oxo-4,5-dihydro-H-1,2,4-triazol-1-yl)methyl]thieno[2,3-d]pyrimidine-2,4(1H,3H)-dione] | 190 nM
8 | Cc1c(Cn2nc[nH]c2=O)sc2c1c(=O)n(C1CC1)c(=O)n2CC(F)F [Example 199, 3-Cyclopropyl-1-(2,2-difluoroethyl)-5-methyl-6-[(5-oxo-4,5-dihydro-H-1,2,4-triazol-1-yl)methyl]thieno[2,3-d]pyrimidine-2,4(1H,3H)-dione] | 130 nM
9 | Cc1c(Cn2nc[nH]c2=O)sc2c1c(=O)n(C1CC1)c(=O)n2CCCC#N [Example 212, 4-{3-Cyclopropyl-5-methyl-2,4-dioxo-6-[(5-oxo-4,5-dihydro-1H-1,2,4-triazol-1-yl)methyl]-3,4-dihydrothieno[2,3-d]pyrimidin-1 (2H)-yl}butanenitrile] | 240 nM
10 | CCc1c(CN2CCNC2=O)sc2c1c(=O)n(C1(C)CC1)c(=O)n2CCOC [Example 219, 5-Ethyl-1-(2-methoxyethyl)-3-(1-methylcyclopropyl)-6-[(2-oxoimidazolidin-1-yl)methyl]thieno[2,3-d]pyrimidine-2,4(1H,3H)-dione] | 400 nM

Now those with a lower IC50, led by results:

Row | IC50 | Compound
11 | 55 nM | Cc1c(Cn2[nH]ccc2=O)sc2c1c(=O)n(C1CC1)c(=O)n2CCC(F)(F)F [Example 200, 3-Cyclopropyl-5-methyl-6-[(5-oxo-2,5-dihydro-H-pyrazol-1-yl)methyl]-1-(3,3,3-trifluoropropyl)thieno[2,3-d]pyrimidine-2,4(1H,3H)-dione]
12 | 53 nM | Cc1c(Cn2nc[nH]c2=O)sc2c1c(=O)n(C1CC1)c(=O)n2CCCC(F)(F)F [Example 201, 3-Cyclopropyl-5-methyl-6-[(5-oxo-4,5-dihydro-1H-1,2,4-triazol-1-yl)methyl]-1-(4,4,4-trifluorobutyl)thieno[2,3-d]pyrimidine-2,4(1H,3H)-dione]
13 | 1.8 nM | Cc1c(CN2CCNC2=O)sc2c1c(=O)n(C1CC1)c(=O)n2CC1CC(F)(F)C1 [Example 204, 3-Cyclopropyl-1-[(3,3-difluorocyclobutyl)methyl]-5-methyl-6-[(2-oxoimidazolidin-1-yl)methyl]thieno[2,3-d]pyrimidine-2,4(1H,3H)-dione]
14 | 7 nM | Cc1c(Cn2cc[nH]c2=O)sc2c1c(=O)n(C1CC1)c(=O)n2CC1CC(F)(F)C1 [Example 205, 3-Cyclopropyl-1-[(3,3-difluorocyclobutyl)methyl]-5-methyl-6-[(2-oxo-2,3-dihydro-1H-imidazol-1-yl)methyl]thieno[2,3-d]pyrimidine-2,4(1H,3H)-dione]
15 | 6.2 nM | Cc1c(Cn2nc[nH]c2=O)sc2c1c(=O)n(C1CC1)c(=O)n2CC1CC(F)(F)C1 [Example 206, 3-Cyclopropyl-1-[(3,3-difluorocyclobutyl)methyl]-5-methyl-6-[(5-oxo-4,5-dihydro-1H-1,2,4-triazol-1-yl)methyl]thieno[2,3-d]pyrimidine-2,4(1H,3H)-dione]
16 | 40 nM | Cc1c(Cn2nc[nH]c2=O)sc2c1c(=O)n(C1CC1)c(=O)n2CCSC(F)(F)F [Example 213, 3-Cyclopropyl-5-methyl-6-[(5-oxo-4,5-dihydro-1H-1,2,4-triazol-1-yl)methyl]-1-{2-[(trifluoromethyl)sulfanyl]ethyl}thieno[2,3-d]pyrimidine-2,4(1H,3H)-dione]
17 | 10 nM | Cc1c(Cn2cc[nH]c2=O)sc2c1c(=O)n(C1(C)CC1)c(=O)n2CCC(F)(F)F [Example 214, 5-Methyl-3-(1-methylcyclopropyl)-6-[(2-oxo-2,3-dihydro-1H-imidazol-1-yl)methyl]-1-(3,3,3-trifluoropropyl)thieno[2,3-d]pyrimidine-2,4(1H,3H)-dione]
18 | 73 nM | Cc1c(Cn2[nH]ccc2=O)sc2c1c(=O)n(C1(C)CC1)c(=O)n2CCC(F)(F)F [Example 215, 5-Methyl-3-(1-methylcyclopropyl)-6-[(5-oxo-2,5-dihydro-1H-pyrazol-1-yl)methyl]-1-(3,3,3-trifluoropropyl)thieno[2,3-d]pyrimidine-2,4(1H,3H)-dione]
19 | 3.2 nM | Cc1c(Cn2cc[nH]c2=O)sc2c1c(=O)n(C1(C)CC1)c(=O)n2CC1CC(F)(F)C1 [Example 216]
20 | 38 nM | COCCn1c(=O)n(C2(C)CC2)c(=O)c2c(C)c(Cn3cc[nH]c3=O)sc21 [Example 217, 1-(2-Methoxyethyl)-5-methyl-3-(1-methylcyclopropyl)-6-[(2-oxo-2,3-dihydro-1H-imidazol-1-yl)methyl]thieno[2,3-d]pyrimidine-2,4(1H,3H)-dione]
21 | 54 nM | CCc1c(CN2CCNC2=O)sc2c1c(=O)n(C1(C)CC1)c(=O)n2CCC(F)(F)F [Example 218, 5-Ethyl-3-(1-methylcyclopropyl)-6-[(2-oxoimidazolidin-1-yl)methyl]-1-(3,3,3-trifluoropropyl)thieno[2,3-d]pyrimidine-2,4(1H,3H)-dione]
22 | 33 nM | Cc1c(Cn2nc[nH]c2=O)sc2c1c(=O)n([C@H]1C[C@@H]1C)c(=O)n2C [Example 220, 1,5-Dimethyl-3-[(1S,2S)-2-methylcyclopropyl]-6-[(5-oxo-4,5-dihydro-1H-1,2,4-triazol-1-yl)methyl]thieno[2,3-d]pyrimidine-2,4(1H,3H)-dione]
23 | 1.3 nM | CCCCn1c(=O)n([C@H]2C[C@@H]2C)c(=O)c2c(C)c(CN3CCNC3=O)sc21 [Example 230, 1-Butyl-5-methyl-3-[(1S,2S)-2-methylcyclopropyl]-6-[(2-oxoimidazolidin-1-yl)methyl]thieno[2,3-d]pyrimidine-2,4(1H,3H)-dione]
